Measurements reported in patent US10292976B2, “Anti-malarial agent” (RIKEN, priority 2014, dated 2019).
Where two headings read alike, the source gives them in different places.

Key:
[1] = tested on: Plasmodium falciparum: 3D7 strain; assay: Antimalarial activity by LDH assay, 3D7 strain; assay type: cell-based; details: for antimalarial activity (LDH assay, FIG. 2): 10 nM to 10 μM
Procedure: Compounds that chelate metal ions in various modes (L1 to L25 in FIG. 1) were selected, and their antimalarial activities were evaluated by LDH assay. Since infection with malaria causes an increase in the LDH activity, the evaluation can be made based on the criteria that the lower the detected LDH activity, the higher the antimalarial activity.
(§1) The LDH assay was carried out according to the following procedure. That is, 0.5 μL of a solution of each compound in DMSO was added to 100 μL of a culture liquid of erythrocytes (88% RPMI solution; 2% erythrocytes, provided by the Japanese Red Cross Society; and 10% human serum, provided by the Japanese Red Cross Society) infected with falciparum malaria parasites (Plasmodium falciparum: 3D7 strain) (infection rate of erythrocytes, 0.3%). The resulting culture liquid was subjected to culture in a 96-well plate under an atmosphere of 5% CO2, 5% O2, and 90% N2 at 37° C. for three days. Subsequently, the culture liquid was cooled at −80° C. for three hours, and then returned to room temperature. After addition of 150 μL of an LDH enzyme reaction liquid (0.15 mg/mL diaphorase, 37.5 μL/mL of 50% sodium lactate, 0.17 mg/mL NBT, 0.11 mg/mL APAD, 0.16 mL/mL of 1 M Tris-HCl (pH 8), and 8.3 μL/mL of Tween 20), the absorbance at 620 nm was measured.
By the same procedure as in Experiment 1, erythrocytes infected with malaria were treated with L6 (about 40 nM) together with iron ion (about 50 μM), copper ion (about 1 μM), or zinc ion (about 10 μM), and the antimalarial activity was evaluated by LDH assay.
(§2) According to the same procedure as in Experiment 1, the antimalarial activities of metal complexes (M-L6) synthesized by mixing various kinds of metal ions (MSO4: M=Zn, Fe, Cu, Co, Ni, or Mn) with L6 at a molar ratio of 1:1 were evaluated by LDH assay.

[2] = tested on: malaria parasites; details: cited from earlier work
[3] = tested on: HeLa: human cervical cancer cells; assay: Cytotoxicity by WST-8 assay, HeLa; assay type: cell-based; details: Table 3, 48 hours, WST-8
Procedure: (§3) After treating various kinds of cells (HEK293T: human embryonic kidney cells; HeLa: human cervical cancer cells; NIH3T3: mouse fibroblast cells; tsNRK: rat kidney cells; and 3Y1: rat fibroblasts) with a metal chelator for 48 hours, the cytotoxicities of the cells were evaluated by WST-8 assay.
(§4) Subsequently, the following cell types: HL60 (human promyelocytic leukemia cells), HeLa (human cervical cancer cells), C3H10T1/2 (murine multipotential mesenchymal cells), and HEK293 (human embryonic kidney 293 cells); were treated with metal complexes M-L6 (M=Zn, Fe, Cu, Co, Ni, and Mn) for 48 hours, and then subjected to WST-8 assay to perform evaluation of the cytotoxicity of each kind of metal complex.

[4] = tested on: HEK293 (human embryonic kidney 293 cells); assay: Cytotoxicity by WST-8 assay, HEK293; assay type: cell-based; details: Table 3, 48 hours
Procedure: as §4

[5] = tested on: C3H10T1/2 (murine multipotential mesenchymal cells); assay: Cytotoxicity by WST-8 assay, C3H10T1/2; assay type: cell-based; details: Table 3, 48 hours
Procedure: as §4

[6] = tested on: HL60 (human promyelocytic leukemia cells); assay: Cytotoxicity by WST-8 assay, HL60; assay type: cell-based; details: Table 3, 48 hours
Procedure: as §4

[7] = tested on: drug-resistant malaria parasite K1 strain; assay: Antimalarial activity by LDH assay, K1 strain; assay type: cell-based, Plasmodium falciparum
Procedure: as §1, §2
According to the same procedure as in Experiment 1, the antimalarial activities of L18 and di-2-pyridylketone 4,4-dimethyl-3-thiosemicarbazone (Sigma) against the malaria parasite 3D7 strain and the drug-resistant malaria parasite K1 strain were evaluated by LDH assay.
According to the same procedure as in Experiment 1, the antimalarial activities of 4′-(4-Pyridyl)-2,2′:6′,2″-terpyridine (Tokyo Chemical Industry) against the malaria parasite 3D7 strain and the drug-resistant malaria parasite K1 strain were evaluated by LDH assay.

[8] = tested on: mouse malaria parasites (Plasmodium berghei ANKA strain); assay: Life-prolonging effect in malaria-infected mice, oral administration; assay type: in vivo; details: oral 200 mg/kg on Day 1, Day 3, and Day 6
Procedure: To mice (7 weeks old, Balb/c, male), erythrocytes infected with mouse malaria parasites (Plasmodium berghei ANKA strain) (total number of erythrocytes per mouse, about 10^7; rate of malaria-infected erythrocytes, 0.3%) were intraperitoneally injected. L6 was administered (20 mg/kg, intraperitoneal injection) to each of the thus obtained malaria-infected mice, and the rate of malaria-infected erythrocytes was measured. As a result, on Day 2 to Day 6 after the infection, the infection rate tended to increase in the negative control to which only DMSO was administered. […] The effect of L6 to reduce the infection rate was almost equivalent to the effect of an existing drug, chloroquine (CQ).
To malaria-infected mice obtained by the same procedure as in Experiment 4, an aqueous solution of L6 or the zinc complex Zn-L6 was orally administered (at a dose of 200 mg/kg on Day 1, Day 3, and Day 6; N=6), and changes in the number of surviving individuals were investigated. […] That is, it is thought that, by formation of metal complex with zinc ion, L6 can remarkably suppress the toxicity in vivo while sufficiently maintaining the antimalarial activity.

[9] = tested on: Dd2 strain (drug-resistant malaria parasites); assay: Antimalarial activity by LDH assay, Dd2 strain; assay type: cell-based, Plasmodium falciparum; details: Table 2, LDH assay, Experiment 6; read-out: IC50 antimalarial activity, Dd2
[10] = tested on: HL60, HeLa, C3H10T1/2, and HEK293; assay: Cytotoxicity by WST-8 assay, summary for the four cell types of Experiment 6; assay type: cell-based; details: C3H10T1/2, HEK293, 48 hours
Procedure: as §4

[11] = Cytotoxicity by WST-8 assay, 3Y1; assay type: cell-based; details: rat, 3Y1 cells, 3Y1, 48 hours
Procedure: as §3

[12] = Cytotoxicity by WST-8 assay, tsNRK; assay type: cell-based; details: rat, tsNRK cells
Procedure: as §3

[13] = Cytotoxicity by WST-8 assay, HEK293T; assay type: cell-based; details: human, HEK293T cells
Procedure: as §3

[14] = Cytotoxicity by WST-8 assay, HeLa; assay type: cell-based, human; details: human, HeLa cells, HeLa, 48 hours, read-out: IC50 value, cytotoxicity
Procedure: as §3, §4

[15] = Cytotoxicity by WST-8 assay, NIH3T3; assay type: cell-based; details: mouse, NIH3T3 cells, NIH3T3, 48 hours
Procedure: as §3

[16] = Table 2, LDH assay, Experiment 6, read-out: IC50 antimalarial activity, 3D7
[17] = Plasmodium falciparum, 3D7, 3D7 strain, values in text, read-out: IC50 value for the antimalarial activity based on the LDH assay
[18] = Plasmodium falciparum, LDH assay, values in text, read-out: IC50 antimalarial activity against the K1 strain

c1ccc(-c2ccnc3c2ccc2c(-c4ccccc4)ccnc23)cc1 [L17, 4,7-Diphenyl-1,10-phenanthroline]
antimalarial activity (LDH assay, FIG. 2) ([1]; result in words): relatively strong antimalarial activity

CC(=O)N(O)CCCCCNC(=O)CCC(=O)N(O)CCCCCNC(=O)CCC(=O)N(O)CCCCCN [DFO, desferrioxamine]
IC50 ([2]; Non-patent Document 3, read-out: antimalarial activity IC50): 21 µM

O=S(=O)([O-])[O-].[Fe+2].c1ccc(CN(Cc2ccccn2)Cc2ccccn2)nc1 [Fe-L6]
IC50 [3]: 9.5 µM | IC50 [4]: 6.1 µM | IC50 [5]: 9.6 µM | IC50 [1, 16]: 0.19 µM | IC50 [6]: 4.8 µM

O=S(=O)([O-])[O-].[Zn+2].c1ccc(CN(Cc2ccccn2)Cc2ccccn2)nc1 [Zn-L6]
IC50 ([7]; Table 2, LDH assay, Experiment 6, read-out: IC50 antimalarial activity, K1): 0.089 µM | cure / infection rate of malaria [8]: completely cured mice, in which the infection rate of malaria was 0%, could be found | life-prolonging effect (number of surviving individuals) [8]: significantly better life-prolonging effect than in the control | IC50 [3]: > 100 µM | IC50 [9]: 0.166 µM | IC50 [4]: > 100 µM | IC50 [5]: > 100 µM | antimalarial activity of metal complex compared to L6 alone ([1]; LDH assay, metal ion:L6 molar ratio 1:1, result in words): almost the same as that in the case of L6 alone | IC50 [1, 16]: 0.093 µM | IC50 [10]: > 100 µM | IC50 [6]: > 100 µM

Nc1cc2cccnc2c2ncccc12 [L3, (1,10)-Phenanthrolin-5-amine]
IC50 at 48 h ([11]; 1st measurement): 0.73 µM | IC50 at 48 h ([11]; 2nd measurement): 0.67 µM | IC50 at 48 h ([12]; 1st measurement): 6.12 µM | IC50 at 48 h ([12]; 2nd measurement): 3.08 µM | IC50 at 48 h ([13]; 1st measurement): 0.49 µM | IC50 at 48 h ([13]; 2nd measurement): 0.47 µM

O=C(Nc1cccc(CN(Cc2ccccn2)Cc2ccccn2)n1)c1ccccc1 [Bis(2-pyridylmethyl)(6-benzamide-2-pyridylmethyl)amine]
IC50 [1, 17]: ~0.07 µM

C[C@@H]1CC[C@H]2[C@@H](C)C(=O)O[C@@H]3O[C@@]4(C)CC[C@@H]1[C@]32OO4 [artemisinin, reference compound]
IC50 [1, 17]: ~0.016 µM

c1ccc(-c2cc(-c3ccncc3)cc(-c3ccccn3)n2)nc1 [4′-(4-Pyridyl)-2,2′:6′,2″-terpyridine]
IC50 [7, 18]: ~0.07 µM | IC50 [1, 17]: ~0.16 µM

CCN(CC)CCCC(C)Nc1ccnc2cc(Cl)ccc12 (stereo not drawn) [chloroquine, reference compound]
IC50 ([1]; Plasmodium falciparum, 3D7, read-out: IC50 value for the antimalarial activity based on the LDH assay): ~0.045 µM

c1ccc(-c2cccc(-c3ccccn3)n2)nc1 [L18, 2,2′:6′,2″-Terpyridine]
IC50 [7, 18]: ~0.12 µM | antimalarial activity (LDH assay, FIG. 2) ([1]; result in words): relatively strong antimalarial activity | IC50 [1, 17]: ~0.28 µM

O=S(=O)([O-])[O-].[Cu+2].c1ccc(CN(Cc2ccccn2)Cc2ccccn2)nc1 [Cu-L6]
IC50 [3]: 13 µM | IC50 [4]: 6 µM | IC50 [5]: 12 µM | IC50 [1, 16]: 0.12 µM | IC50 [6]: 5 µM

O=S(=O)([O-])[O-].[Ni+2].c1ccc(CN(Cc2ccccn2)Cc2ccccn2)nc1 [Ni-L6]
IC50 [3]: 32 µM | IC50 [4]: 47.6 µM | IC50 [5]: 54 µM | IC50 [1, 16]: 0.74 µM | IC50 [6]: 16 µM

O=S(=O)([O-])[O-].[Mn+2].c1ccc(CN(Cc2ccccn2)Cc2ccccn2)nc1 [Mn-L6]
IC50 [3]: 4.5 µM | IC50 [4]: 3.7 µM | IC50 [5]: 4.2 µM | IC50 [1, 16]: 0.11 µM | IC50 [6]: 1.5 µM

CN(C(=S)NN=C(c1ccccn1)c1ccccn1)C1CCCCC1 [di-2-pyridylketone-4-cyclohexyl-4-methyl-3-thiosemicarbazone]
IC50 [1, 17]: ~0.002 µM

CN(C)C(=S)NN=C(c1ccccn1)c1ccccn1 [di-2-pyridylketone 4,4-dimethyl-3-thiosemicarbazone]
IC50 [7, 18]: ~0.003 µM | IC50 [1, 17]: ~0.004 µM

O=S(=O)([O-])[O-].[Co+2].c1ccc(CN(Cc2ccccn2)Cc2ccccn2)nc1 [Co-L6]
IC50 [3]: 18 µM | IC50 [4]: 20.6 µM | IC50 [5]: 18 µM | IC50 [1, 16]: 0.55 µM | IC50 [6]: 6.6 µM

c1ccc(CN(CCN(Cc2ccccn2)Cc2ccccn2)Cc2ccccn2)nc1 [L7, N,N,N′,N′-Tetrakis(2-pyridylmethyl)ethylenediamine, reference compound]
IC50 at 48 h ([11]; 1st measurement): 5.11 µM | IC50 at 48 h ([11]; 2nd measurement): 4.93 µM | IC50 at 48 h ([12]; 1st measurement): 1.84 µM | IC50 at 48 h ([12]; 2nd measurement): 2.09 µM | IC50 at 48 h ([14]; 1st measurement (Table 1)): 5.53 µM | IC50 at 48 h ([14]; 2nd measurement (Table 1)): 4.96 µM | IC50 at 48 h ([13]; 1st measurement): 1.99 µM | IC50 at 48 h ([13]; 2nd measurement): 3.14 µM | IC50 at 48 h ([15]; 1st measurement): 1.66 µM | IC50 at 48 h ([15]; 2nd measurement): 1.79 µM | inhibition of infection with malaria parasites ([2]; Non-patent Document 1): inhibits infection with malaria parasites
